Assay results from patent publication US11643438B2, “Antimicrobial peptides and methods of use” (priority 2018, dated 2023).
≈ marks a conversion by molar mass, not a printed value. *1 amine or outer side, *2 acyl side, *3 side chain or, on linkers, in order; H or OH if unused. Where a SMILES comes first, the peptide text is derived from it. [ ]: non-standard residue; d: D form. X2 = CC[C@H](C)C[C@H](C)C[C@H](C)C[C@H](N[*:1])C(=O)[*:2]; X1 = CC[C@@H](C)[C@@H](O[*:1])C(=O)[*:2]; NMeVal(β-OH) = CN[C@H](C(=O)O)C(C)(C)O; aIle = CC[C@@H](C)[C@H](N)C(=O)O; NMeV = CN[C@H](C(=O)O)C(C)C; Sar = CNCC(=O)O

Columns and labels:
[1] = test system: Aspergillus fumigatus ATCC MYA-3627; assay: Effect of serum on antifungal activity (MIC80); assay type: cell-based
Procedure: (§1) Given that compound 1 contains a large number of hydrophobic amino acid residues that might promote non-specific protein binding resulting in a loss of in vivo activity, the efficacy of the compound was tested in the presence of blood serum against four fungal pathogens (C. albicans, C. auris, C. neoformans, and A. fumigatus) (Table 3).

Candida albicans SC5314 [2] = assay: Effect of serum on antifungal activity (MIC80); assay type: cell-based
Procedure: as §1

Candida auris 381 = assay: Effect of serum on antifungal activity (MIC80); assay type: cell-based
Procedure: as §1

[3] = test system: Cryptococcus neoformans H99; assay: Effect of serum on antifungal activity (MIC80); assay type: cell-based
Procedure: as §1

Candida albicans 3 = assay: Antifungal MIC80 assay, clinical yeast isolates
Candida albicans 8 = assay: Antifungal MIC80 assay, clinical yeast isolates
Candida albicans 14 = assay: Antifungal MIC80 assay, clinical yeast isolates
Candida albicans 24 = assay: Antifungal MIC80 assay, clinical yeast isolates
Candida glabrata 2 = assay: Antifungal MIC80 assay, clinical yeast isolates
Candida glabrata 20 = assay: Antifungal MIC80 assay, clinical yeast isolates
Candida glabrata 22 = assay: Antifungal MIC80 assay, clinical yeast isolates
Candida parapsilosis 7 = assay: Antifungal MIC80 assay, clinical yeast isolates
Candida parapsilosis 28 = assay: Antifungal MIC80 assay, clinical yeast isolates
Candida krusei 25 = assay: Antifungal MIC80 assay, clinical yeast isolates
Candida auris 383 = assay: Antifungal MIC80 assay, clinical yeast isolates
Candida auris 384 = assay: Antifungal MIC80 assay, clinical yeast isolates
[4] = test system: Candida duobushaemulonii 394; assay: Antifungal MIC80 assay, clinical yeast isolates
Kodameae ohmeri 396 = assay: Antifungal MIC80 assay, clinical yeast isolates
Candida krusei 397 = assay: Antifungal MIC80 assay, clinical yeast isolates
[5] = test system: Saccharomyces cerevisiae 399; assay: Antifungal MIC80 assay, clinical yeast isolates
Candida albicans SC5314 [6] = assay: Antifungal MIC80/MFC assay, fungal pathogen panel
[7] = test system: Candida parapsilosis ATCC 22019 (Y-12969); assay: Antifungal MIC80/MFC assay, fungal pathogen panel
[8] = test system: Candida tropicalis ATCC750 (Y-12699); assay: Antifungal MIC80/MFC assay, fungal pathogen panel
[9] = test system: Candida krusei ATCC 6258 (Y-7179); assay: Antifungal MIC80/MFC assay, fungal pathogen panel
[10] = test system: Cryptococcus neoformans H99; assay: Antifungal MIC80/MFC assay, fungal pathogen panel
[11] = test system: Aspergillus fumigatus NRRL5109; assay: Antifungal MIC80/MFC assay, fungal pathogen panel
[12] = test system: Aspergillus terreus 191A6; assay: Antifungal MIC80/MFC assay, fungal pathogen panel
[13] = test system: Rhizopus oryzae FGSC 9543; assay: Antifungal MIC80/MFC assay, fungal pathogen panel
[14] = test system: Paecilomyces lilacinus 165E10; assay: Antifungal MIC80/MFC assay, fungal pathogen panel
[15] = test system: Hamigera insecticola NRRL35442; assay: Antifungal MIC80/MFC assay, fungal pathogen panel
Alternaria brassicicola = assay: MIC/MFC against phytopathogenic (endophytic) fungi
Mycosphaerella populorum = assay: MIC/MFC against phytopathogenic (endophytic) fungi; conditions: Sphaerulina musiva
[16] = 0% serum (v/v) in growth medium
[17] = 5% serum (v/v) in growth medium
[18] = 10% serum (v/v) in growth medium
[19] = Candida parapsilosis ATCC 22019 (Y-12969)
[20] = Candida tropicalis ATCC750 (Y-12699)
[21] = Candida krusei ATCC 6258 (Y-7179)
[22] = Lodderomyces parapsilosis, ATCC22019
[23] = Purpureocillium lilacinum, 165E10

C[C@@H]1[C@H](O)[C@@H](C)/C=C/C=C/C=C/C=C/C=C/C=C/C=C/[C@H](O[C@@H]2O[C@H](C)[C@@H](O)[C@H](N)[C@@H]2O)C[C@@H]2O[C@](O)(C[C@@H](O)C[C@@H](O)[C@H](O)CC[C@@H](O)C[C@@H](O)CC(=O)O[C@H]1C)C[C@H](O)[C@H]2C(=O)O [AMB, amphotericin B]
MIC80 [1, 16]: 2.5 µM (≈ 2.31 µg/mL)
MIC80 [1, 17]: <0.07 µM
MIC80 [1, 18]: 0.15 µM (≈ 0.139 µg/mL)
MIC80 (Candida albicans SC5314 [2]; Candida albicans SC5314, 0% serum (v/v) in growth medium): 0.6 µM (≈ 0.554 µg/mL)
MIC80 (Candida albicans SC5314 [2]; Candida albicans SC5314, 5% serum (v/v) in growth medium): <0.15 µM
MIC80 (Candida albicans SC5314 [2]; Candida albicans SC5314, 10% serum (v/v) in growth medium): <0.15 µM
MIC80 (Candida auris 381; [16]): 2.5 µM (≈ 2.31 µg/mL)
MIC80 (Candida auris 381; [17]): <0.15 µM
MIC80 (Candida auris 381; [18]): 0.3 µM (≈ 0.277 µg/mL)
MIC80 ([3]; Cryptococcus neoformans H99, 0% serum (v/v) in growth medium): 1.25 µM (≈ 1.16 µg/mL)
MIC80 ([3]; Cryptococcus neoformans H99, 5% serum (v/v) in growth medium): <0.15 µM
MIC80 ([3]; Cryptococcus neoformans H99, 10% serum (v/v) in growth medium): <0.15 µM
MIC80 (Candida albicans 3): 0.6 µM (≈ 0.554 µg/mL)
MIC80 (Candida albicans 8): 0.6 µM (≈ 0.554 µg/mL)
MIC80 (Candida albicans 14): 1.25 µM (≈ 1.16 µg/mL)
MIC80 (Candida albicans 24): 1.25 µM (≈ 1.16 µg/mL)
MIC80 (Candida glabrata 2; Candida glabrata 2): 0.3 µM (≈ 0.277 µg/mL)
MIC80 (Candida glabrata 20; Candida glabrata 20): 0.6 µM (≈ 0.554 µg/mL)
MIC80 (Candida glabrata 22; Candida glabrata 22): 0.3 µM (≈ 0.277 µg/mL)
MIC80 (Candida parapsilosis 7; Candida parapsilosis 7): 2.5 µM (≈ 2.31 µg/mL)
MIC80 (Candida parapsilosis 28; Candida parapsilosis 28): 1.25 µM (≈ 1.16 µg/mL)
MIC80 (Candida krusei 25; Candida krusei 25): 1.25 µM (≈ 1.16 µg/mL)
MIC80 (Candida auris 383; Candida auris 383, multidrug-resistant): 2.5 µM (≈ 2.31 µg/mL)
MIC80 (Candida auris 384; Candida auris 384, multidrug-resistant): 2.5 µM (≈ 2.31 µg/mL)
MIC80 ([4]; Candida duobushaemulonii 394, multidrug-resistant): 5 µM (≈ 4.62 µg/mL)
MIC80 (Kodameae ohmeri 396; Kodameae ohmeri 396, multidrug-resistant): 1.25 µM (≈ 1.16 µg/mL)
MIC80 (Candida krusei 397; Candida krusei 397, multidrug-resistant): 2.5 µM (≈ 2.31 µg/mL)
MIC80 ([5]; Saccharomyces cerevisiae 399, multidrug-resistant): 2.5 µM (≈ 2.31 µg/mL)
MFC (Candida albicans SC5314 [6]): 2.5 µM (≈ 2.31 µg/mL)
MIC80 (Candida albicans SC5314 [6]): 0.6 µM (≈ 0.554 µg/mL)
MFC [7, 19]: 5 µM (≈ 4.62 µg/mL)
MIC80 [7, 19]: 1.25 µM (≈ 1.16 µg/mL)
MFC [8, 20]: 2.5 µM (≈ 2.31 µg/mL)
MIC80 [8, 20]: 1.25 µM (≈ 1.16 µg/mL)
MFC [9, 21]: 5 µM (≈ 4.62 µg/mL)
MIC80 [9, 21]: 2.5 µM (≈ 2.31 µg/mL)
MFC [10]: 2.5 µM (≈ 2.31 µg/mL)
MIC80 [10]: 1.25 µM (≈ 1.16 µg/mL)
MFC [11]: 5 µM (≈ 4.62 µg/mL)
MIC80 [11]: 2.5 µM (≈ 2.31 µg/mL)
MFC [12]: 10 µM (≈ 9.24 µg/mL)
MIC80 [12]: 2.5 µM (≈ 2.31 µg/mL)
MFC ([13]; Rhizopus oryzae FGSC 9543): 0.3 µM (≈ 0.277 µg/mL)
MIC80 ([13]; Rhizopus oryzae FGSC 9543): 0.3 µM (≈ 0.277 µg/mL)
MFC ([14]; Paecilomyces lilacinus 165E10): >10 µM
MIC80 ([14]; Paecilomyces lilacinus 165E10): >10 µM
MFC [15]: 10 µM (≈ 9.24 µg/mL)
MIC80 [15]: 2.5 µM (≈ 2.31 µg/mL)

CC[C@H](C)C[C@H](C)C[C@H](C)C[C@@H]1NC(=O)[C@H](C(C)C)N(C)C(=O)[C@@H]([C@H](C)CC)OC(=O)[C@H](C(C)(C)O)N(C)C(=O)[C@H](CC(C)C)NC(=O)[C@H](C(C)C)N(C)C(=O)[C@H]([C@H](C)CC)NC(=O)[C@@H]2CCCN2C(=O)CN(C)C1=O [Compound 1, persephacin] (cyclo(L[NMeVal(β-OH)][X1][NMeV][X2][Sar]P[aIle][NMeV]))
MIC80 [1, 16]: 2.5 µM (≈ 2.69 µg/mL)
MIC80 [1, 17]: 2.5 µM (≈ 2.69 µg/mL)
MIC80 [1, 18]: 2.5 µM (≈ 2.69 µg/mL)
MIC80 (Candida albicans SC5314 [2]; Candida albicans, SC5314, Candida albicans SC5314, 0% serum (v/v) in growth medium): 0.6 µM (≈ 0.645 µg/mL)
MIC80 (Candida albicans SC5314 [2]; Candida albicans, SC5314, Candida albicans SC5314, 5% serum (v/v) in growth medium): 0.15 µM (≈ 0.161 µg/mL)
MIC80 (Candida albicans SC5314 [2]; Candida albicans, SC5314, Candida albicans SC5314, 10% serum (v/v) in growth medium): 0.3 µM (≈ 0.323 µg/mL)
MIC80 (Candida auris 381; [17]): 1.25 µM (≈ 1.34 µg/mL)
MIC80 (Candida auris 381; [18]): 1.25 µM (≈ 1.34 µg/mL)
MIC80 (Candida auris 381; Candidozyma auris, 0% serum (v/v) in growth medium): 1.25 µM (≈ 1.34 µg/mL)
MIC80 ([3]; Cryptococcus neoformans, H99, Cryptococcus neoformans H99, 0% serum (v/v) in growth medium): 0.6 µM (≈ 0.645 µg/mL)
MIC80 ([3]; Cryptococcus neoformans, H99, Cryptococcus neoformans H99, 5% serum (v/v) in growth medium): < 0.15 µM
MIC80 ([3]; Cryptococcus neoformans, H99, Cryptococcus neoformans H99, 10% serum (v/v) in growth medium): < 0.15 µM
MIC80 (Candida albicans 3): 2.5 µM (≈ 2.69 µg/mL)
MIC80 (Candida albicans 8): 0.6 µM (≈ 0.645 µg/mL)
MIC80 (Candida albicans 14): 0.6 µM (≈ 0.645 µg/mL)
MIC80 (Candida albicans 24): 0.6 µM (≈ 0.645 µg/mL)
MIC80 (Candida glabrata 2; Nakaseomyces glabratus, 2): 0.15 µM (≈ 0.161 µg/mL)
MIC80 (Candida glabrata 20; Nakaseomyces glabratus, 20): 0.3 µM (≈ 0.323 µg/mL)
MIC80 (Candida glabrata 22; Nakaseomyces glabratus, 22): 0.6 µM (≈ 0.645 µg/mL)
MIC80 (Candida parapsilosis 7; Lodderomyces parapsilosis, 7): 2.5 µM (≈ 2.69 µg/mL)
MIC80 (Candida parapsilosis 28; Lodderomyces parapsilosis, 28): 2.5 µM (≈ 2.69 µg/mL)
MIC80 (Candida krusei 25; Pichia kudriavzevii, 25): 1.25 µM (≈ 1.34 µg/mL)
MIC80 (Candida auris 383; Candidozyma auris, 383): 2.5 µM (≈ 2.69 µg/mL)
MIC80 (Candida auris 384; Candidozyma auris, 384): 2.5 µM (≈ 2.69 µg/mL)
MIC80 ([4]; Candidozyma duobushaemuli, 394): 2.5 µM (≈ 2.69 µg/mL)
MIC80 (Kodameae ohmeri 396; 396): 2.5 µM (≈ 2.69 µg/mL)
MIC80 (Candida krusei 397; Pichia kudriavzevii, 397): 2.5 µM (≈ 2.69 µg/mL)
MIC80 ([5]; Saccharomyces cerevisiae, 399): 2.5 µM (≈ 2.69 µg/mL)
MFC (Candida albicans SC5314 [6]): 1.25 µM (≈ 1.34 µg/mL)
MIC80 (Candida albicans SC5314 [6]): 0.3 µM (≈ 0.323 µg/mL)
MFC [7, 22]: 2.5 µM (≈ 2.69 µg/mL)
MIC80 [7, 22]: 2.5 µM (≈ 2.69 µg/mL)
MFC ([8]; Candida tropicalis, ATCC750): 2.5 µM (≈ 2.69 µg/mL)
MIC80 ([8]; Candida tropicalis, ATCC750): 1.25 µM (≈ 1.34 µg/mL)
MFC ([9]; Pichia kudriavzevii, ATCC6258): 2.5 µM (≈ 2.69 µg/mL)
MIC80 ([9]; Pichia kudriavzevii, ATCC6258): 1.25 µM (≈ 1.34 µg/mL)
MFC [10]: 2.5 µM (≈ 2.69 µg/mL)
MIC80 [10]: 0.6 µM (≈ 0.645 µg/mL)
MFC [11]: 5 µM (≈ 5.38 µg/mL)
MIC80 [11]: 2.5 µM (≈ 2.69 µg/mL)
MFC [12]: > 10 µM
MIC80 [12]: 2.5 µM (≈ 2.69 µg/mL)
MFC ([13]; Rhizopus arrhizus, FGSC9543): > 10 µM
MIC80 ([13]; Rhizopus arrhizus, FGSC9543): > 10 µM
MFC [14, 23]: > 10 µM
MIC80 [14, 23]: 2.5 µM (≈ 2.69 µg/mL)
MFC [15]: 5 µM (≈ 5.38 µg/mL)
MIC80 [15]: 0.6 µM (≈ 0.645 µg/mL)
MFC (Alternaria brassicicola): 20 µM (≈ 21.5 µg/mL)
MIC (Alternaria brassicicola): 5 µM (≈ 5.38 µg/mL)
MFC (Mycosphaerella populorum): 10 µM (≈ 10.8 µg/mL)
MIC (Mycosphaerella populorum): 2.5 µM (≈ 2.69 µg/mL)
